Data: patent publication US10251395B2, “Substituted furano-/thienocycloalkylamino-2-pyrimidine derivatives and use thereof for controlling undesired plant growth” (Bayer CropScience Aktiengesellschaft, priority 2015, dated 2019)

Key:
Assay type in all cases: in vivo
Alopecurus myosuroides = assay: Pre-emergence herbicidal effect; settings: Dosage 320 g/ha, scored visually after 3 weeks
Excerpt: (§1) Seeds of monocotyledonous and dicotyledonous weed plants and crop plants are laid out in wood-fiber pots in sandy loam and covered with soil. The compounds of the invention, formulated in the form of wettable powders (WP) or as emulsion concentrates (EC), are then applied to the surface of the covering soil as aqueous suspension or emulsion at a water application rate equating to 600 to 800 L/ha with addition of 0.2% wetting agent.
(§2) After the treatment, the pots are placed in a greenhouse and kept under good growth conditions for the trial plants. The damage to the test plants is scored visually after a test period of 3 weeks by comparison with untreated controls (herbicidal activity in percent (%): 100% activity=the plants have died, 0% activity=like control plants).
(§3) • ABUTH: Abutilon theophrasti ALOMY: Alopecurus myosuroides • AMARE: Amaranthus retroflexus AVEFA: Avena fatua • CYPES: Cyperus esculentus ECHCG: Echinochloa crus-galli • LOLMU: Lolium multiflorum MATIN: Matricaria inodora • PHBPU: Ipomoea purpurea POLCO: Polygonum convolvulus • SETVI: Setaria viridis STEME: Stellaria media • VERPE: Veronica persica VIOTR: Viola tricolor

Amaranthus retroflexus [1] = assay: Pre-emergence herbicidal effect; settings: scored visually after 3 weeks
Excerpt: as §1, §2, §3

Echinochloa crus-galli [2] = assay: Pre-emergence herbicidal effect; settings: scored visually after 3 weeks
Excerpt: as §1, §2, §3

Matricaria inodora = assay: Pre-emergence herbicidal effect; settings: scored visually after 3 weeks
Excerpt: as §1, §2, §3

Setaria viridis [3] = assay: Pre-emergence herbicidal effect; settings: Dosage 320 g/ha, scored visually after 3 weeks
Excerpt: as §1, §2, §3

Stellaria media [4] = assay: Pre-emergence herbicidal effect; settings: scored visually after 3 weeks
Excerpt: as §1, §2, §3

Veronica persica [5] = assay: Pre-emergence herbicidal effect; settings: scored visually after 3 weeks
Excerpt: as §1, §2, §3

Viola tricolor [6] = assay: Pre-emergence herbicidal effect; settings: scored visually after 3 weeks
Excerpt: as §1, §2, §3

Amaranthus retroflexus [7] = assay: Post-emergence herbicidal effect; settings: assessed visually after about 3 weeks vs untreated controls
Excerpt: (§4) • ABUTH: Abutilon theophrasti ALOMY: Alopecurus myosuroides • AMARE: Amaranthus retroflexus AVEFA: Avena fatua • CYPES: Cyperus esculentus ECHCG: Echinochloa crus-galli • LOLMU: Lolium multiflorum MATIN: Matricaria inodora • PHBPU: Ipomoea purpurea POLCO: Polygonum convolvulus • SETVI: Setaria viridis STEME: Stellaria media • VERPE: Veronica persica VIOTR: Viola tricolor Seeds of monocotyledonous and dicotyledonous weed and crop plants are laid out in sandy loam in wood-fiber pots, covered with soil and cultivated in a greenhouse under good growth conditions. 2 to 3 weeks after sowing, the test plants are treated at the one-leaf stage. The compounds of the invention, formulated in the form of wettable powders (WP) or as emulsion concentrates (EC), are then sprayed onto the green parts of the plants as aqueous suspension or emulsion at a water application rate equating to 600 to 800 L/ha with addition of 0.2% wetting agent. After the test plants have been left to stand in the greenhouse under optimal growth conditions for about 3 weeks, the action of the preparations is assessed visually in comparison to untreated controls (herbicidal action in percent (%): 100% activity=the plants have died, 0% activity=like control plants).

Echinochloa crus-galli [8] = assay: Post-emergence herbicidal effect; settings: 320 g/ha, assessed visually after about 3 weeks vs untreated controls
Excerpt: as §4

Ipomoea purpurea = assay: Post-emergence herbicidal effect; settings: 320 g/ha, assessed visually after about 3 weeks vs untreated controls
Excerpt: as §4

Setaria viridis [9] = assay: Post-emergence herbicidal effect; settings: assessed visually after about 3 weeks vs untreated controls
Excerpt: as §4

Stellaria media [10] = assay: Post-emergence herbicidal effect; settings: assessed visually after about 3 weeks vs untreated controls
Excerpt: as §4

Veronica persica [11] = assay: Post-emergence herbicidal effect
Excerpt: as §4

Viola tricolor [12] = assay: Post-emergence herbicidal effect
Excerpt: as §4

Lolium multiflorum = assay: Pre-emergence herbicidal effect; settings: Dosage 320 g/ha, scored visually after 3 weeks
Excerpt: as §1, §2, §3

Polygonum convolvulus = assay: Pre-emergence herbicidal effect; settings: Dosage 320 g/ha, scored visually after 3 weeks
Excerpt: as §1, §2, §3

[13] = 320 g/ha, assessed visually after about 3 weeks vs untreated controls
[14] = 80 g/ha, assessed visually after about 3 weeks vs untreated controls
[15] = dosage not printed (first line of Ex. 30)

| SMILES | AMARE pre-emergence efficacy (herbicidal activity) (Amaranthus retroflexus [1]; Dosage 320 g/ha) | ECHCG pre-emergence efficacy (herbicidal activity) (Echinochloa crus-galli [2]; Dosage 80 g/ha) | ECHCG pre-emergence efficacy (herbicidal activity) (Echinochloa crus-galli [2]; Dosage 320 g/ha) | MATIN pre-emergence efficacy (herbicidal activity) (Matricaria inodora; Dosage 80 g/ha) | MATIN pre-emergence efficacy (herbicidal activity) (Matricaria inodora; Dosage 320 g/ha) | SETVI pre-emergence efficacy (herbicidal activity) (Setaria viridis [3]) | STEME pre-emergence efficacy (herbicidal activity) (Stellaria media [4]; Dosage 320 g/ha) | VERPE pre-emergence efficacy (herbicidal activity) (Veronica persica [5]; Dosage 80 g/ha) | VERPE pre-emergence efficacy (herbicidal activity) (Veronica persica [5]; Dosage 320 g/ha) | VIOTR pre-emergence efficacy (herbicidal activity) (Viola tricolor [6]; Dosage 80 g/ha) | VIOTR pre-emergence efficacy (herbicidal activity) (Viola tricolor [6]; Dosage 320 g/ha) | post-emergence efficacy AMARE (Amaranthus retroflexus [7]; 80 g/ha) | post-emergence efficacy AMARE (Amaranthus retroflexus [7]; 320 g/ha) | post-emergence efficacy STEME (Stellaria media [10]; 320 g/ha) | post-emergence efficacy VERPE (Veronica persica [11]; [13]) | post-emergence efficacy VIOTR (Viola tricolor [12]; [14]) | post-emergence efficacy VIOTR (Viola tricolor [12]; [13]) | AMARE pre-emergence efficacy (herbicidal activity) (Amaranthus retroflexus [1]; Dosage 80 g/ha) | POLCO pre-emergence efficacy (herbicidal activity) (Polygonum convolvulus) | STEME pre-emergence efficacy (herbicidal activity) (Stellaria media [4]; Dosage 80 g/ha) | further results |
| --- | --- | --- | --- | --- | --- | --- | --- | --- | --- | --- | --- | --- | --- | --- | --- | --- | --- | --- | --- | --- | --- |
| Nc1nc(NC2CCc3cc(Cl)sc32)ncc1C(F)(F)F (racemic) [compound 48] | 100% | 100% | 100% | 80% | 90% | 80% | 100% | 100% | 100% | 100% | 100% | 80% | 90% | 90% | 80% | 80% | 90% | – | – | – | ALOMY pre-emergence efficacy (herbicidal activity) (Alopecurus myosuroides): 80%; post-emergence efficacy ECHCG (Echinochloa crus-galli [8]): 100%; post-emergence efficacy PHBPU (Ipomoea purpurea): 80%; post-emergence efficacy SETVI (Setaria viridis [9]; 80 g/ha): 80%; post-emergence efficacy SETVI (Setaria viridis [9]; 320 g/ha): 90% |
| CS(=O)(=O)c1cnc(NC2CCc3cc(Cl)sc32)nc1N (racemic) [compound 50] | 100% | 90% | 100% | 90% | 90% | 100% | 100% | 100% | 100% | 80% | 100% | 80% | 90% | 100% | 90% | 90% | 100% | 100% | 100% | 100% | LOLMU pre-emergence efficacy (herbicidal activity) (Lolium multiflorum): 80%; post-emergence efficacy VERPE (Veronica persica [11]; [14]): 80% |
| Cc1cc2c(s1)CCCC2Nc1ncc(C(=O)C(F)(F)Cl)c(N)n1 (racemic) [compound 30] | 100% | – | – | 100% | 100% | 90% | 100% | 90% | 100% | 100% | 100% | – | – | – | – | – | – | 90% | – | 90% | post-emergence efficacy VERPE (Veronica persica [11]; [15]): 80%; post-emergence efficacy VIOTR (Viola tricolor [12]; [15]): 90%; post-emergence efficacy VIOTR (Viola tricolor [12]; dosage not printed (second line of Ex. 30)): 80% |
| Cc1cc2c(s1)CCCC2Nc1ncc(-c2cccc(F)c2)c(N)n1 (racemic) [compound 265] | – | – | – | – | 100% | – | 100% | 100% | 100% | – | – | 80% | 80% | 60% | 90% | 80% | 80% | – | 60% | – | post-emergence efficacy STEME (Stellaria media [10]; 80 g/ha): 60%; post-emergence efficacy VERPE (Veronica persica [11]; [14]): 90% |
| Cc1cc2c(s1)CCC2Nc1ncc(S(=O)(=O)NCc2ccc(F)cc2)c(N)n1 (racemic) [compound 38] | 90% | – | – | – | 100% | – | – | – | 90% | – | – | – | 80% | – | 90% | – | – | – | – | – | – |
